This test concerns the target USP19 (Homo sapiens (Human), UniProt O94966). The test can be described thus: USP19 activity assay (fluorescence polarisation, Ubiquitin-Lys-TAMRA substrate). The format is biochemical. The conditions noted are these: full-length USP19 2.5 nM, 30 min pre-incubation, Ub substrate 500 nM; average of at least two duplicate experiments. As for the experimental part: Unless otherwise stated, all other reagents were purchased from Sigma. Enzymatic reactions were conducted in black flat bottom polystyrene 384-well plates (Nunc) and 30 μL total volume. […] Inhibitors were stored as 10 mM DMSO stocks in an inert environment (low humidity, dark, low oxygen, room temperature) using the Storage Pod System and serial dilutions were prepared in buffer just prior to the assay (from 200 μM to 2 pM, 8-18 data point curve). Following incubation at RT for 30 min, the enzymatic reactions were initiated by dispensing the Ub substrate (500 nM, 10 μL). FP was measured every 15 min over a period of 90 min (within the linear range of the assay) using a Synergy 4 plate reader (BioTek) exciting at 530 nm and measuring the amount of parallel and perpendicular light at 575 nm. The FP signal was subsequently normalised to the no compound control.
(Polarisation of emitted light reports the rotation of a fluorescent probe.)

From patent publication US11053213B2, “Pharmaceutical compounds” (ALMAC DISCOVERY LIMITED, priority 2016, dated 2021) come the findings set out here.

Sequence of USP19 (O94966 whole entry): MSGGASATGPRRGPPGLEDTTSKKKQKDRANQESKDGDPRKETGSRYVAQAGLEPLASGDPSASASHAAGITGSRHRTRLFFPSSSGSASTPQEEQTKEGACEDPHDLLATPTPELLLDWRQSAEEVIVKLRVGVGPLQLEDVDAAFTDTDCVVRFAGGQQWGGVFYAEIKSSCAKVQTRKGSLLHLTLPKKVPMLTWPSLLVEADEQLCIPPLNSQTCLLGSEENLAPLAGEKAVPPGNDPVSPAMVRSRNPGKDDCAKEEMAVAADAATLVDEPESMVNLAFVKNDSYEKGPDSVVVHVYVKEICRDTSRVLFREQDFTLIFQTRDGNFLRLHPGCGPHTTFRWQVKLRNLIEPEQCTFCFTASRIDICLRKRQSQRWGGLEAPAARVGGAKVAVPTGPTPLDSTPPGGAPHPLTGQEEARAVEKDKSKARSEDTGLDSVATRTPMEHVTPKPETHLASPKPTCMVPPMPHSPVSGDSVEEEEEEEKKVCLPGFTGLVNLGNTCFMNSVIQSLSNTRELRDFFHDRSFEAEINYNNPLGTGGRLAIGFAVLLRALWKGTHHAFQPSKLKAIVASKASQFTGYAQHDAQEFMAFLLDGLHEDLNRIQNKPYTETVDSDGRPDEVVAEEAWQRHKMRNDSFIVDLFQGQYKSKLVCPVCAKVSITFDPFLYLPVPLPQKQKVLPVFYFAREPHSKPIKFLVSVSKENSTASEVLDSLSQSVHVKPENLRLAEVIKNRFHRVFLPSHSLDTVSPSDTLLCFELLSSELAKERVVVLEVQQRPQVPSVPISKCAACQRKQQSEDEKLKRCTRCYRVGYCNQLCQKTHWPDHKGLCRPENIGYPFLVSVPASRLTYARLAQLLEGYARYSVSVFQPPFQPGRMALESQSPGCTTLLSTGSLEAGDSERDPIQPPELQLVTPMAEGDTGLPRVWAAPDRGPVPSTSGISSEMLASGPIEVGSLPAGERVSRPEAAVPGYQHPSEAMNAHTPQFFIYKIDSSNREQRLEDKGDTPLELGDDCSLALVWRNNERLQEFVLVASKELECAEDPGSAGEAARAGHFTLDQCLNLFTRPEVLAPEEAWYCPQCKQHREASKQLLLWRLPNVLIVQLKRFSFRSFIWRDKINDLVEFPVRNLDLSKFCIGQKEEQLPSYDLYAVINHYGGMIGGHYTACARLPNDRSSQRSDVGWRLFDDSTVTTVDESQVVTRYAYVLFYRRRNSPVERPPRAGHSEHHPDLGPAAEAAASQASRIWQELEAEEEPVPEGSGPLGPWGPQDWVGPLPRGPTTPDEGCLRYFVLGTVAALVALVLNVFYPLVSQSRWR

Turning to `CC(CC(F)F)C(=O)N1CCC(O)(Cn2cc(C(=O)N(C)C)c(-c3ccccc3)cc2=O)C2(CCCC2)C1` (stereo not drawn) [Example 243, 1-((7-(4,4-Difluoro-2-methylbutanoyl)-10-hydroxy-7-azaspiro[4.5]decan-10-yl)methyl)-N,N-dimethyl-6-oxo-4-phenyl-1,6-dihydropyridine-3-carboxamide], the IC50 (in general, the concentration that gives 50% inhibition) was 5 to 50 µM.
The same measure for `C[C@H](CC1CCCCC1)C(=O)N1CCC(O)(Cn2cc(C(=O)N3CCN(C)CC3)c(-c3ccccc3)cc2=O)C(C)(C)C1` (stereo partly drawn) [Example 170, 1-((1-((R)-3-Cyclohexyl-2-methylpropanoyl)-4-hydroxy-3,3-dimethylpiperidin-4-yl)methyl)-5-(4-methylpiperazine-1-carbonyl)-4-phenylpyridin-2(1H)-one]: less than 0.5 µM; for `C[C@H](CC(=O)N1CCC(O)(Cn2cc(C(=O)NC3CCCCC3)c(-c3ccccc3)cc2=O)CC1)c1ccccc1` [Example 65, (R)—N-Cyclohexyl-1-((4-hydroxy-1-(3-phenylbutanoyl)piperidin-4-yl)methyl)-6-oxo-4-phenyl-1,6-dihydropyridine-3-carboxamide]: 5 to 50 µM; for `C[C@H](CC1CCCCC1)C(=O)N1CCC(O)(Cn2cc(C(=O)N(C)C)c(-c3ccccc3)cc2=O)C2(CCOCC2)C1` (stereo partly drawn) [Example 234, 1-((2-((R)-3-Cyclohexyl-2-methylpropanoyl)-5-hydroxy-9-oxa-2-azaspiro[5.5]undecan-5-yl)methyl)-N,N-dimethyl-6-oxo-4-phenyl-1,6-dihydropyridine-3-carboxamide]: 0.5 to 5 µM.
For `C[C@H](CC1CC1)C(=O)N1CCC(O)(Cn2cc(C(=O)N(C)C)c(-c3ccccc3)cc2=O)C(C)(C)C1` (stereo partly drawn) [Example 129, 1-((1-((R)-3-Cyclopropyl-2-methylpropanoyl)-4-hydroxy-3,3-dimethylpiperidin-4-yl)methyl)-N,N-dimethyl-6-oxo-4-phenyl-1,6-dihydropyridine-3-carboxamide], the IC50 lay within 5 to 50 µM.
The same measure for `C[C@H](CC1CCCCC1)C(=O)N1CC[C@@](O)(Cn2cc(C(=O)N3CCOCC3)c(-c3ccccc3)cc2=O)C2(CCCC2)C1` [Example 239, 1-(((S)-7-((R)-3-Cyclohexyl-2-methylpropanoyl)-10-hydroxy-7-azaspiro[4.5]decan-10-yl)methyl)-5-(morpholine-4-carbonyl)-4-phenylpyridin-2(1H)-one]: less than 0.5 µM; for `C[C@H](CC1CCCCC1)C(=O)N1CC[C@@](O)(Cn2cc(C(=O)N3CCNCC3)c(C3CC3)cc2=O)C2(CCCC2)C1` [Example 233, 1-(((S)-7-((R)-3-Cyclohexyl-2-methylpropanoyl)-10-hydroxy-7-azaspiro[4.5]decan-10-yl)methyl)-4-cyclopropyl-5-(piperazine-1-carbonyl)pyridin-2(1H)-one]: less than 0.5 µM.
In the case of `CN(C)C(=O)c1cn(CC2(O)CCN(C(=O)C3CCC(F)C3)CC23CCCC3)c(=O)cc1-c1ccccc1` (stereo not drawn) [Example 177, 1-((7-(3-Fluorocyclopentane-1-carbonyl)-10-hydroxy-7-azaspiro[4.5]decan-10-yl)methyl)-N,N-dimethyl-6-oxo-4-phenyl-1,6-dihydropyridine-3-carboxamide], the IC50 is 50 to 250 µM.
The same measure for `C[C@H](CC1CCCCC1)C(=O)N1CCC(O)(Cn2cc(C(=O)O)c(-c3ccccc3)cc2=O)C(C)(C)C1` (stereo partly drawn) [Example 241, 1-((1-((R)-3-Cyclohexyl-2-methylpropanoyl)-4-hydroxy-3,3-dimethylpiperidin-4-yl)methyl)-6-oxo-4-phenyl-1,6-dihydropyridine-3-carboxylic acid]: 0.5 to 5 µM.
Under `C[C@H](CC1CCC1)C(=O)N1CC[C@@](O)(Cn2cc(C(=O)N(C)C)c(-c3ccccc3F)cc2=O)C2(CCCC2)C1` [Example 222, 1-(((S)-7-((R)-3-Cyclobutyl-2-methylpropanoyl)-10-hydroxy-7-azaspiro[4.5]decan-10-yl)methyl)-4-(2-fluorophenyl)-N,N-dimethyl-6-oxo-1,6-dihydropyridine-3-carboxamide] stands less than 0.5 µM; under `C[C@H](CC1CCCCC1)C(=O)N1CCC(O)(Cn2cc(C(=O)N(C)C)ccc2=O)C2(CCCC2)C1` (stereo partly drawn) [Example 127, 1-((7-((R)-3-Cyclohexyl-2-methylpropanoyl)-10-hydroxy-7-azaspiro[4.5]decan-10-yl)methyl)-N,N-dimethyl-6-oxo-1,6-dihydropyridine-3-carboxamide], 0.5 to 5 µM; under `COc1cc(=O)n(CC2(O)CCN(C(=O)[C@H](C)CC3CCCCC3)CC23CCCC3)cc1C(=O)N(C)C` (stereo partly drawn) [Example 242, 1-((7-((R)-3-Cyclohexyl-2-methylpropanoyl)-10-hydroxy-7-azaspiro[4.5]decan-10-yl)methyl)-4-methoxy-N,N-dimethyl-6-oxo-1,6-dihydropyridine-3-carboxamide], 0.5 to 5 µM.
`CN(C)C(=O)c1cn(CC2(O)CCN(C(=O)c3n[nH]c4ccccc34)CC23CCCC3)c(=O)cc1-c1ccccc1` (stereo not drawn) [Example 188, 1-((10-Hydroxy-7-(1H-indazole-3-carbonyl)-7-azaspiro[4.5]decan-10-yl)methyl)-N,N-dimethyl-6-oxo-4-phenyl-1,6-dihydropyridine-3-carboxamide]: the IC50 lay within 50 to 250 µM.
The same measure for `CN(C)C(=O)c1cn(CC2(O)CCN(C(=O)C(C)(C)CC(F)F)CC23CCCC3)c(=O)cc1-c1ccccc1` (stereo not drawn) [Example 244, 1-((7-(4,4-Difluoro-2,2-dimethylbutanoyl)-10-hydroxy-7-azaspiro[4.5]decan-10-yl)methyl)-N,N-dimethyl-6-oxo-4-phenyl-1,6-dihydropyridine-3-carboxamide]: 5 to 50 µM.
Under `O=C(c1cn(C[C@]2(O)CCN(C(=O)[C@H](CO)CC(F)(F)F)CC23CCCC3)c(=O)cc1-c1ccccc1)N1CCOCC1` [Example 248, 1-(((S)-10-Hydroxy-7-((S)-4,4,4-trifluoro-2-(hydroxymethyl)butanoyl)-7-azaspiro[4.5]decan-10-yl)methyl)-5-(morpholine-4-carbonyl)-4-phenylpyridin-2(1H)-one] stands less than 0.5 µM; under `C[C@H](CC1CCCCC1)C(=O)N1CCC(O)(Cn2cnc(-c3ccnn3C)cc2=O)C(C)(C)C1` (stereo partly drawn) [Example 131, 3-((1-((R)-3-Cyclohexyl-2-methylpropanoyl)-4-hydroxy-3,3-dimethylpiperidin-4-yl)methyl)-6-(1-methyl-1H-pyrazol-5-yl)pyrimidin-4(3H)-one], 0.5 to 5 µM; under `C[C@@H](CC(=O)N1CCC(O)(Cn2cc(C(=O)N(C)C)c(-c3ccccc3)cc2=O)C2(CCCC2)C1)c1ccccc1` (stereo partly drawn) [Example 183, 1-((10-Hydroxy-7-((S)-3-phenylbutanoyl)-7-azaspiro[4.5]decan-10-yl)methyl)-N,N-dimethyl-6-oxo-4-phenyl-1,6-dihydropyridine-3-carboxamide], 5 to 50 µM.
The same measure for `CN(C)C(=O)c1cn(C[C@@]2(O)CCN(C(=O)[C@H](CCO)CC3CCCCC3)CC2(C)C)c(=O)cc1-c1ccccc1` [Example 165, 1-(((R)-1-((S)-2-(Cyclohexylmethyl)-4-hydroxybutanoyl)-4-hydroxy-3,3-dimethylpiperidin-4-yl)methyl)-N,N-dimethyl-6-oxo-4-phenyl-1,6-dihydropyridine-3-carboxamide]: 5 to 50 µM; for `CN(C)C(=O)c1cn(CC2(O)CCN(C(=O)c3ncoc3-c3ccccc3)CC23CCCC3)c(=O)cc1-c1ccccc1` (stereo not drawn) [Example 192, 1-((10-Hydroxy-7-(5-phenyloxazole-4-carbonyl)-7-azaspiro[4.5]decan-10-yl)methyl)-N,N-dimethyl-6-oxo-4-phenyl-1,6-dihydropyridine-3-carboxamide]: 5 to 50 µM.
On to `C[C@H](CC1CCCCC1)C(=O)N1CCC(O)(Cn2cnc(-c3ccn[nH]3)cc2=O)C(C)(C)C1` (stereo partly drawn) [Example 133, 3-((1-((R)-3-Cyclohexyl-2-methylpropanoyl)-4-hydroxy-3,3-dimethylpiperidin-4-yl)methyl)-6-(1H-pyrazol-5-yl)pyrimidin-4(3H)-one], for which the IC50 lay in the range of 0.5 to 5 µM.
Under `O=C(C(F)CC1CCCCC1)N1CCC(O)(Cn2cnc(-c3ccccc3F)cc2=O)CC1` (racemic) [Example 49, (R,S)-3-((1-(3-Cyclohexyl-2-fluoropropanoyl)-4-hydroxypiperidin-4-yl)methyl)-6-(2-fluorophenyl)pyrimidin-4(3H)-one] stands 50 to 250 µM; under `C[C@H](CC1CCC1)C(=O)N1CC[C@@](O)(Cn2cc(C(=O)N(C)C)c(-c3ccccc3F)cc2=O)C(C)(C)C1` [Example 235, 1-(((S)-1-((R)-3-Cyclobutyl-2-methylpropanoyl)-4-hydroxy-3,3-dimethylpiperidin-4-yl)methyl)-4-(2-fluorophenyl)-N,N-dimethyl-6-oxo-1,6-dihydropyridine-3-carboxamide], 0.5 to 5 µM; under `CN(C)C(=O)c1cn(CC2(O)CCN(C(=O)CCC3CCOC3)CC23CCCC3)c(=O)cc1-c1ccccc1` (stereo not drawn) [Example 173, 1-((10-Hydroxy-7-(3-(tetrahydrofuran-3-yl)propanoyl)-7-azaspiro[4.5]decan-10-yl)methyl)-N,N-dimethyl-6-oxo-4-phenyl-1,6-dihydropyridine-3-carboxamide], 50 to 250 µM.
Under `CC(C)N(C)C(=O)c1cn(CC2(O)CCN(C(=O)C[C@@H](c3ccccc3)C(F)F)CC2)c(=O)cc1-c1ccccc1` [Example 71, (S)-1-((1-(4,4-Difluoro-3-phenylbutanoyl)-4-hydroxypiperidin-4-yl)methyl)-N-isopropyl-N-methyl-6-oxo-4-phenyl-1,6-dihydropyridine-3-carboxamide] stands 5 to 50 µM.
